Assay: volatility (statement on prior-art compound)
Assay type: physicochemical
Conditions: qualitative statement, no method given

volatility: high volatility
Structure (SMILES): CCOc1cc(C)[nH]n1 [3-ethoxy-5-methylpyrazole]

From patent publication US11578012B2, “Use of N-functionalized alkoxy pyrazole compounds as nitrification inhibitors” (BASF SE, priority 2018, dated 2023)
